Assay results: patent US20060069132A1, “Azolecarboxamide herbicides” (priority 2004, published 2006)

Assays:
barnyardgrass [1] = assay: Test B pre-/postemergence herbicide test; format: in vivo, Echinochloa crus-galli; conditions: for Barnyardgrass plant response rating: postemergence, scale 0 (no effect) to 100 (complete control)
In short: (§1)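 Test chemicals in a non-phytotoxic solvent mixture with surfactant were applied preemergence to seeded species and postemergence to plants 2-18 cm tall (1- to 4-leaf stage); rice and barnyardgrass were also tested in a flooded paddy at the 2-leaf stage. Visual rating versus controls after 13-15 days in greenhouse, scale 0 (no effect) to 100 (complete control).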

Surinam grass = assay: Test B pre-/postemergence herbicide test; format: in vivo, Urochloa decumbens; conditions: for Surinam Grass plant response rating: postemergence, scale 0 (no effect) to 100 (complete control)
In short: as §1

cocklebur = assay: Test B pre-/postemergence herbicide test; format: in vivo, Xanthium strumarium; conditions: for Cocklebur plant response rating: postemergence, scale 0 (no effect) to 100 (complete control)
In short: as §1

corn = assay: Test B pre-/postemergence herbicide test; format: in vivo, Zea mays; conditions: for Corn plant response rating: postemergence, scale 0 (no effect) to 100 (complete control)
In short: as §1

large crabgrass = assay: Test B pre-/postemergence herbicide test; format: in vivo, Digitaria sanguinalis; conditions: for Crabgrass, Large plant response rating: postemergence, scale 0 (no effect) to 100 (complete control)
In short: as §1

giant foxtail = assay: Test B pre-/postemergence herbicide test; format: in vivo, Setaria faberi; conditions: for Foxtail, Giant plant response rating: postemergence, scale 0 (no effect) to 100 (complete control)
In short: as §1

lambsquarters = assay: Test B pre-/postemergence herbicide test; format: in vivo, Chenopodium album; conditions: for Lambsquarters plant response rating: postemergence, scale 0 (no effect) to 100 (complete control)
In short: as §1

morningglory = assay: Test B pre-/postemergence herbicide test; format: in vivo, Ipomoea coccinea; conditions: for Morningglory plant response rating: postemergence, scale 0 (no effect) to 100 (complete control)
In short: as §1

pigweed = assay: Test B pre-/postemergence herbicide test; format: in vivo, Amaranthus retroflexus; conditions: for Pigweed plant response rating: postemergence, scale 0 (no effect) to 100 (complete control)
In short: as §1

rice [2] = assay: Test B pre-/postemergence herbicide test; format: in vivo, Oryza sativa; conditions: 0 = no effect, 100 = complete control, preemergence
In short: as §1

velvetleaf = assay: Test B pre-/postemergence herbicide test; format: in vivo, Abutilon theophrasti; conditions: for Velvetleaf plant response rating: postemergence, scale 0 (no effect) to 100 (complete control)
In short: as §1

blackgrass = assay: Test B postemergence herbicide test; format: in vivo, Alopecurus myosuroides; conditions: postemergence, visual rating, scale 0 (no effect) to 100 (complete control)
In short: (§2)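 Paddy species grown to the 2-leaf stage under flooding; blackgrass sprayed postemergence at 2–18 cm (1- to 4-leaf stage). Plants kept in a greenhouse for 13 to 15 days, then visually rated against controls on 0 (no effect) to 100 (complete control).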

wheat = assay: Test B postemergence herbicide test; format: in vivo, Triticum aestivum; set-up: key to Wheat plant response rating: 0 = no effect, 100 = complete control; conditions: postemergence, visual rating, scale 0 (no effect) to 100 (complete control)
In short: (§3)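 Postemergence plants were sprayed with formulated test chemicals at 2 to 18 cm height (1- to 4-leaf stage); paddy species were grown to the 2-leaf stage. After 13 to 15 days in a greenhouse, injury was rated visually against untreated controls on a 0–100 scale (0 = no effect, 100 = complete control).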

wild oat = assay: Test B postemergence herbicide test; format: in vivo, Avena fatua; conditions: postemergence, visual rating, scale 0 (no effect) to 100 (complete control)
In short: as §3

rice [3] = assay: Test B flooded paddy test; format: in vivo, Oryza sativa; conditions: 1000 g ai/ha, visual rating, scale 0 to 100 (0 no effect, 100 complete control), 13 to 15 days
In short: as §2

[4] = tested on: small flower umbrella sedge; assay: Test B flooded paddy test; format: in vivo, Cyperus difformis; conditions: 1000 g ai/ha, visual rating, scale 0 to 100 (0 no effect, 100 complete control), 13 to 15 days
In short: as §2

ducksalad = assay: Test B flooded paddy test; format: in vivo, Heteranthera limosa; conditions: 1000 g ai/ha, visual rating, scale 0 to 100 (0 no effect, 100 complete control), 13 to 15 days
In short: as §2

barnyardgrass [5] = assay: Test B flooded paddy test; format: in vivo, Echinochloa crus-galli; conditions: 1000 g ai/ha, visual rating, scale 0 to 100 (0 no effect, 100 complete control), 13 to 15 days
In short: as §2

[6] = 125 g ai/ha, 0 = no effect, 100 = complete control, preemergence
[7] = 500 g ai/ha, visual rating, 0 = no effect, 100 = complete control, preemergence

**Q.** Which “Barnyardgrass plant response rating (0 to 100 scale)” value (barnyardgrass [1]; [6]) does the source give for `CCN(CC)C(=O)c1cccc(NC(=O)c2nn(C(C)(C)C)cc2Cl)c1` [Compound 218] here?
**A.** 0

**Q.** And the “Plant response rating, Barnyardgrass” value (barnyardgrass [1]; [7])?
**A.** 0

**Q.** What about the “Barnyardgrass plant response rating” value (barnyardgrass [1]; 125 g ai/ha, visual rating) of the same compound?
**A.** 0

**Q.** And the “Barnyardgrass plant response rating” value (barnyardgrass [1]; 500 g ai/ha, visual rating)?
**A.** 0

**Q.** What about the “Surinam Grass plant response rating (0 to 100 scale)” value (Surinam grass; [6]) of the same compound?
**A.** 0

**Q.** What about the “Plant response rating, Surinam Grass” value (Surinam grass; [7]) of the same compound?
**A.** 0

**Q.** What about the “Surinam Grass plant response rating” value (Surinam grass; 125 g ai/ha, visual rating) of the same compound?
**A.** 0

**Q.** And the “Surinam Grass plant response rating” value (Surinam grass; 500 g ai/ha, visual rating)?
**A.** 10

**Q.** What about the “Cocklebur plant response rating (0 to 100 scale)” value (cocklebur; [6]) of the same compound?
**A.** 0

**Q.** And the “Plant response rating, Cocklebur” value (cocklebur; [7])?
**A.** 0

**Q.** And the “Cocklebur plant response rating” value (cocklebur; 125 g ai/ha, visual rating)?
**A.** 0

**Q.** And the “Cocklebur plant response rating” value (cocklebur; 500 g ai/ha, visual rating)?
**A.** 0

**Q.** What about the “Corn plant response rating (0 to 100 scale)” value (corn; [6]) of the same compound?
**A.** 0

**Q.** And the “Plant response rating, Corn” value (corn; [7])?
**A.** 0

**Q.** And the “Corn plant response rating” value (corn; 125 g ai/ha, visual rating)?
**A.** 0

**Q.** What about the “Corn plant response rating” value (corn; 500 g ai/ha, visual rating) of the same compound?
**A.** 10

**Q.** And the “Crabgrass, Large plant response rating (0 to 100 scale)” value (large crabgrass; [6])?
**A.** 0

**Q.** What about the “Plant response rating, Crabgrass, Large” value (large crabgrass; [7]) of the same compound?
**A.** 20

**Q.** And the “Crabgrass, Large plant response rating” value (large crabgrass; 125 g ai/ha, visual rating)?
**A.** 0

**Q.** What about the “Crabgrass, Large plant response rating” value (large crabgrass; 500 g ai/ha, visual rating) of the same compound?
**A.** 10

**Q.** What about the “Foxtail, Giant plant response rating (0 to 100 scale)” value (giant foxtail; [6]) of the same compound?
**A.** 0

**Q.** And the “Plant response rating, Foxtail, Giant” value (giant foxtail; [7])?
**A.** 0

**Q.** And the “Foxtail, Giant plant response rating” value (giant foxtail; 125 g ai/ha, visual rating)?
**A.** 0

**Q.** What about the “Foxtail, Giant plant response rating” value (giant foxtail; 500 g ai/ha, visual rating) of the same compound?
**A.** 0

**Q.** What about the “Lambsquarters plant response rating (0 to 100 scale)” value (lambsquarters; [6]) of the same compound?
**A.** 0

**Q.** And the “Plant response rating, Lambsquarters” value (lambsquarters; [7])?
**A.** 0

**Q.** And the “Lambsquarters plant response rating” value (lambsquarters; 125 g ai/ha, visual rating)?
**A.** 0

**Q.** What about the “Lambsquarters plant response rating” value (lambsquarters; 500 g ai/ha, visual rating) of the same compound?
**A.** 10

**Q.** What about the “Morningglory plant response rating (0 to 100 scale)” value (morningglory; [6]) of the same compound?
**A.** 0

**Q.** What about the “Plant response rating, Morningglory” value (morningglory; [7]) of the same compound?
**A.** 0

**Q.** And the “Morningglory plant response rating” value (morningglory; 125 g ai/ha, visual rating)?
**A.** 0

**Q.** And the “Morningglory plant response rating” value (morningglory; 500 g ai/ha, visual rating)?
**A.** 10

**Q.** And the “Pigweed plant response rating (0 to 100 scale)” value (pigweed; [6])?
**A.** 0

**Q.** And the “Plant response rating, Pigweed” value (pigweed; [7])?
**A.** 0

**Q.** What about the “Pigweed plant response rating” value (pigweed; 125 g ai/ha, visual rating) of the same compound?
**A.** 0

**Q.** What about the “Pigweed plant response rating” value (pigweed; 500 g ai/ha, visual rating) of the same compound?
**A.** 20

**Q.** And the “Rice plant response rating (0 to 100 scale)” value (rice [2]; 125 g ai/ha)?
**A.** 0

**Q.** What about the “Plant response rating, Rice” value (rice [2]; 500 g ai/ha, visual rating) of the same compound?
**A.** 0

**Q.** What about the “Velvetleaf plant response rating (0 to 100 scale)” value (velvetleaf; [6]) of the same compound?
**A.** 0

**Q.** And the “Plant response rating, Velvetleaf” value (velvetleaf; [7])?
**A.** 0

**Q.** And the “Velvetleaf plant response rating” value (velvetleaf; 125 g ai/ha, visual rating)?
**A.** 0

**Q.** And the “Velvetleaf plant response rating” value (velvetleaf; 500 g ai/ha, visual rating)?
**A.** 0

**Q.** What about the “Blackgrass plant response rating” value (blackgrass; 125 g ai/ha) of the same compound?
**A.** 0

**Q.** What about the “Blackgrass plant response rating” value (blackgrass; 500 g ai/ha) of the same compound?
**A.** 0

**Q.** What about the “Wheat plant response rating” value (wheat; 125 g ai/ha) of the same compound?
**A.** 0

**Q.** And the “Wheat plant response rating” value (wheat; 500 g ai/ha)?
**A.** 0

**Q.** And the “Oat, Wild plant response rating” value (wild oat; 125 g ai/ha)?
**A.** 0

**Q.** And the “Oat, Wild plant response rating” value (wild oat; 500 g ai/ha)?
**A.** 0

**Q.** What about the “Rice plant response rating” value (rice [3]) of the same compound?
**A.** 0

**Q.** What about the “Sedge, Umbrella plant response rating” value [4] of the same compound?
**A.** 20

**Q.** What about the “Ducksalad plant response rating” value (ducksalad) of the same compound?
**A.** 0

**Q.** And the “Barnyardgrass plant response rating” value (barnyardgrass [5])?
**A.** 0
